Experimental findings from publication PMC12263876, “DDX39B K63-linked ubiquitination mediated by TRIM28 promotes NSCLC metastasis by enhancing ECAD lysosomal degradation” (Signal Transduction and Targeted Therapy, 2025) are described below.

The structures appear in SMILES notation.

In the test the target is T1, DDX39B (Homo sapiens, UniProt Q13838).
T1 construct: His-DDX39B
The test can be described thus: SPR (KD […]); also BLI with biotinylated His-DDX39B (KD […]) and CETSA in NSCLC cells. The test is classed as binding.

T1 sequence (Q13838 2-428): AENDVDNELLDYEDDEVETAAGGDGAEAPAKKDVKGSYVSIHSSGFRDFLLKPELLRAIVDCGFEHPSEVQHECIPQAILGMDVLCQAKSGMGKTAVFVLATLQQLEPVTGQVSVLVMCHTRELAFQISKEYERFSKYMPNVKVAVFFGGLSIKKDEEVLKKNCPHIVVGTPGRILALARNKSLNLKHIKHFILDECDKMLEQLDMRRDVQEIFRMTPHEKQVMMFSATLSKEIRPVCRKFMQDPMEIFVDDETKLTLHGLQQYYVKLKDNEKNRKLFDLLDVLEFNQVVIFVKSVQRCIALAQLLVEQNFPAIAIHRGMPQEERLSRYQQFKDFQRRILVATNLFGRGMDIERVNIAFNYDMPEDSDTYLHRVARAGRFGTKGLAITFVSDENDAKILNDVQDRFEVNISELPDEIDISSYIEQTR

Compound `C[C@H]1[C@H](OC(=O)CCC(=O)O)O[C@@H]2O[C@@]3(C)CC[C@H]4[C@H](C)CC[C@@H]1[C@@]24OO3` [artesunate] returned a Kd of 3.23 µM.

As a reminder, the Kd is a measure of binding affinity in units of concentration. High values mean weaker binding, low ones tighter binding.
